Measured values from US20020137929A1, “1 - (3-heterocyclylphenyl) isothiourea, -isourea, -guanidine and -amidine herbicidal agents” (Intellectual Property Department, BASF Aktiengesellschaft, priority 1998, published 2002).

Experiments:
[1] = system: CHEAL (Lambsquarters, Common); assay: Postemergence herbicidal evaluation; format: in vivo, Chenopodium album; settings: postemergence
Method in brief: (§1)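 Visual 0-9 injury score (stand, vigor, malformation, size, chlorosis, appearance vs untreated) taken four to five weeks post-spray, averaged across repeat tests. Test plants about two weeks old; foliar spray of acetone/water (1:1) with 0.5% surfactant delivering ~0.0156-0.500 kg active/ha.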

CYPSE (Flatsedge) [2] = assay: Postemergence weed control under flooded paddy conditions; format: in vivo, Cyperus serotinus; settings: postemergence weeds
Method in brief: (§2)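 Flood-water application, about 0.0313–0.500 kg/ha a.i. in aqueous/acetone 50/50 v/v; water depth 1.5–3 cm throughout. Weeds 3–5 cm, rice 1.5–2.5 leaf. Greenhouse; 0–9 visual rating vs control at 3–4 wk.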

CYPIR (Rice Flatsedge) = assay: as above; format: in vivo, Cyperus iria; settings: postemergence weeds
Method in brief: as §2

ECHCG (Barnyardgrass) = assay: Postemergence herbicidal evaluation; format: in vivo, Echinochloa crus-galli; settings: postemergence
Method in brief: as §1

CYPSE (Flatsedge) [3] = assay: Preemergence weed control under flooded paddy conditions; format: in vivo, Cyperus serotinus; settings: rated 3-4 weeks after treatment
Method in brief: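 Herbicidal effect is scored visually on a 0-9 scale against an untreated control, three to four weeks after compounds are pipetted into the flood water (1.5 to 3 cm deep) over seeds planted in silt loam at 0.5 cm depth. Rates: about 0.0313 to 0.500 kg/ha.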

ABUTH (Velvetleaf) = assay: Postemergence herbicidal evaluation; format: in vivo, Abutilon theophrasti; settings: postemergence
Method in brief: as §1

AMBEL (Ragweed, Common) [4] = assay: Postemergence herbicidal evaluation; format: in vivo, Ambrosia artemisifolia; settings: postemergence
Method in brief: as §1

GALAP (Galium) = assay: Preemergence herbicidal evaluation; format: in vivo, Galium aparine; settings: rated 4-5 weeks after treatment; for GALAP rating: preemergence, 0-9 scale
Method in brief: (§3)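 Steps: mix seeds into potting soil; plant atop ~1 inch soil; spray compound in aqueous acetone (~0.0156-0.500 kg/ha equivalent); maintain in greenhouse with watering; rate visually 0-9 versus control at 4-5 weeks.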

ZEAMX (Corn, Field) = assay: Postemergence herbicidal evaluation; format: in vivo, Zea mays; settings: postemergence
Method in brief: as §1

[5] = system: CHEAL (Lambsquarters, Common); assay: Preemergence herbicidal evaluation; format: in vivo, Chenopodium album; settings: rated 4-5 weeks after treatment; for CHEAL rating: preemergence, 0-9 scale
Method in brief: as §3

[6] = system: GLXMAW (Soybean, Williams); assay: Postemergence herbicidal evaluation; format: in vivo, Glycine max, (L.) Merr. cv Williams; settings: postemergence
Method in brief: as §1

ORYSAT (Rice, Tebonnet) = assay: Postemergence herbicidal evaluation; format: in vivo, Oryza sativa, (L.) Tebonnet; settings: postemergence
Method in brief: as §1

AMBEL (Ragweed, Common) [7] = assay: Preemergence herbicidal evaluation; format: in vivo, Ambrosia artemisifolia; settings: rated 4-5 weeks after treatment; for AMBEL rating: preemergence, 0-9 scale
Method in brief: as §3

CASOB (Sicklepod) = assay: Preemergence herbicidal evaluation; format: in vivo, Cassia obtusifolia; settings: rated 4-5 weeks after treatment; for CASOB rating: preemergence, 0-9 scale
Method in brief: as §3

[8] = rate 0.1160 kg/ha, 3-4 weeks after treatment
[9] = rate 0.2310 kg/ha, 3-4 weeks after treatment
[10] = rate 0.4630 kg/ha, 3-4 weeks after treatment
[11] = Rate 0.0313 kg/ha, rated 3 to 4 weeks after treatment
[12] = Rate 0.0625 kg/ha, rated 3 to 4 weeks after treatment
[13] = Rate 0.1250 kg/ha, rated 3 to 4 weeks after treatment
[14] = Rate 0.2500 kg/ha, rated 3 to 4 weeks after treatment

CCOC(=O)CN1C(=O)C(=Cc2ccccc2)SC1=Nc1cc(-n2c(=O)cc(C(F)(F)F)n(C)c2=O)c(F)cc1Cl [Compound 19, Ethyl 5-benzylidene-2-{{2-chloro-5-[3,6-dihydro-3-methyl-2,6-dioxo-4-(trifluoromethyl)-1(2H)-pyrimidinyl]-4-fluorophenyl}imino}-4-oxo-3-thiazolidineacetate]
CHEAL herbicidal rating ([1]; rate 0.0158 kg/ha): 3.0
CHEAL herbicidal rating ([1]; rate 0.0315 kg/ha): 7.0
CHEAL herbicidal rating ([1]; rate 0.0630 kg/ha): 9.0
Herbicidal rating CYPSE (CYPSE (Flatsedge) [2]; [8]): 4.0
Herbicidal rating CYPSE (CYPSE (Flatsedge) [2]; [9]): 4.0
Herbicidal rating CYPSE (CYPSE (Flatsedge) [2]; [10]): 4.0
Herbicidal rating CYPIR (CYPIR (Rice Flatsedge); [8]): 0.0
Herbicidal rating CYPIR (CYPIR (Rice Flatsedge); [9]): 0.0
Herbicidal rating CYPIR (CYPIR (Rice Flatsedge); [10]): 0.0
ECHCG herbicidal rating (ECHCG (Barnyardgrass); rate 0.0158 kg/ha): 1.0
ECHCG herbicidal rating (ECHCG (Barnyardgrass); rate 0.0315 kg/ha): 2.0
ECHCG herbicidal rating (ECHCG (Barnyardgrass); rate 0.0630 kg/ha): 2.0
Herbicidal rating CYPSE (CYPSE (Flatsedge) [3]; 0.1160 kg/ha): 4.0
Herbicidal rating CYPSE (CYPSE (Flatsedge) [3]; 0.2310 kg/ha): 4.0
Herbicidal rating CYPSE (CYPSE (Flatsedge) [3]; 0.4630 kg/ha): 4.0
ABUTH herbicidal rating (ABUTH (Velvetleaf); rate 0.0158 kg/ha): 9.0
ABUTH herbicidal rating (ABUTH (Velvetleaf); rate 0.0315 kg/ha): 9.0
ABUTH herbicidal rating (ABUTH (Velvetleaf); rate 0.0630 kg/ha): 9.0
AMBEL herbicidal rating (AMBEL (Ragweed, Common) [4]; rate 0.0158 kg/ha): 3.0
AMBEL herbicidal rating (AMBEL (Ragweed, Common) [4]; rate 0.0315 kg/ha): 3.0
AMBEL herbicidal rating (AMBEL (Ragweed, Common) [4]; rate 0.0630 kg/ha): 7.0
GALAP preemergence herbicidal rating (GALAP (Galium); rate 0.1250 kg/ha): 0.0
GALAP preemergence herbicidal rating (GALAP (Galium); rate 0.2500 kg/ha): 0.0
ZEAMX herbicidal rating (ZEAMX (Corn, Field); rate 0.0158 kg/ha): 4.0
ZEAMX herbicidal rating (ZEAMX (Corn, Field); rate 0.0315 kg/ha): 4.5
ZEAMX herbicidal rating (ZEAMX (Corn, Field); rate 0.0630 kg/ha): 5.0
CHEAL preemergence herbicidal rating ([5]; rate 0.1250 kg/ha): 9.0
CHEAL preemergence herbicidal rating ([5]; rate 0.2500 kg/ha): 9.0
GLXMAW herbicidal rating ([6]; rate 0.0158 kg/ha): 3.0
GLXMAW herbicidal rating ([6]; rate 0.0315 kg/ha): 4.5
GLXMAW herbicidal rating ([6]; rate 0.0630 kg/ha): 4.5
ORYSAT herbicidal rating (ORYSAT (Rice, Tebonnet); rate 0.0158 kg/ha): 1.5
ORYSAT herbicidal rating (ORYSAT (Rice, Tebonnet); rate 0.0315 kg/ha): 2.0
ORYSAT herbicidal rating (ORYSAT (Rice, Tebonnet); rate 0.0630 kg/ha): 2.5
AMBEL preemergence herbicidal rating (AMBEL (Ragweed, Common) [7]; rate 0.1250 kg/ha): 0.0
AMBEL preemergence herbicidal rating (AMBEL (Ragweed, Common) [7]; rate 0.2500 kg/ha): 1.0
CASOB preemergence herbicidal rating (CASOB (Sicklepod); rate 0.1250 kg/ha): 0.0
CASOB preemergence herbicidal rating (CASOB (Sicklepod); rate 0.2500 kg/ha): 0.0

CC(C)OC(=O)CC1SC(=Nc2cc(-n3c(=O)cc(C(F)(F)F)n(C)c3=O)c(F)cc2Cl)N(C)C1=O (stereo not drawn) [Compound 89, Isopropyl 2-{{2-chloro-5-[3,6-dihydro-3-methyl-2,6-dioxo-4-(trifluoromethyl)-1(2H)-pyrimidinyl]-4-fluorophenyl}imino}-3-methyl-4-oxo-5-thiazolidineacetate]
CHEAL herbicidal rating ([1]; rate 0.0158 kg/ha): 4.0
CHEAL herbicidal rating ([1]; rate 0.0313 kg/ha): 9.0
CHEAL herbicidal rating ([1]; rate 0.0625 kg/ha): 9.0
CHEAL herbicidal rating ([1]; rate 0.1250 kg/ha): 9.0
Herbicidal rating CYPSE (CYPSE (Flatsedge) [2]; [11]): 0.0
Herbicidal rating CYPSE (CYPSE (Flatsedge) [2]; [12]): 0.0
Herbicidal rating CYPSE (CYPSE (Flatsedge) [2]; [13]): 4.0
Herbicidal rating CYPSE (CYPSE (Flatsedge) [2]; [14]): 6.0
Herbicidal rating CYPIR (CYPIR (Rice Flatsedge); [11]): 0.0
Herbicidal rating CYPIR (CYPIR (Rice Flatsedge); [12]): 0.0
Herbicidal rating CYPIR (CYPIR (Rice Flatsedge); [13]): 2.0
Herbicidal rating CYPIR (CYPIR (Rice Flatsedge); [14]): 4.0
ECHCG herbicidal rating (ECHCG (Barnyardgrass); rate 0.0158 kg/ha): 2.0
ECHCG herbicidal rating (ECHCG (Barnyardgrass); rate 0.0313 kg/ha): 9.0
ECHCG herbicidal rating (ECHCG (Barnyardgrass); rate 0.0625 kg/ha): 9.0
ECHCG herbicidal rating (ECHCG (Barnyardgrass); rate 0.1250 kg/ha): 9.0
CYPSE herbicidal effect rating (CYPSE (Flatsedge) [3]; 0.0313 kg/ha): 0.0
CYPSE herbicidal effect rating (CYPSE (Flatsedge) [3]; 0.0625 kg/ha): 0.0
CYPSE herbicidal effect rating (CYPSE (Flatsedge) [3]; 0.1250 kg/ha): 4.0
CYPSE herbicidal effect rating (CYPSE (Flatsedge) [3]; 0.2500 kg/ha): 6.0
ABUTH herbicidal rating (ABUTH (Velvetleaf); rate 0.0158 kg/ha): 9.0
ABUTH herbicidal rating (ABUTH (Velvetleaf); rate 0.0313 kg/ha): 9.0
ABUTH herbicidal rating (ABUTH (Velvetleaf); rate 0.0625 kg/ha): 9.0
ABUTH herbicidal rating (ABUTH (Velvetleaf); rate 0.1250 kg/ha): 9.0
AMBEL herbicidal rating (AMBEL (Ragweed, Common) [4]; rate 0.0158 kg/ha): 4.0
AMBEL herbicidal rating (AMBEL (Ragweed, Common) [4]; rate 0.0313 kg/ha): 9.0
AMBEL herbicidal rating (AMBEL (Ragweed, Common) [4]; rate 0.0625 kg/ha): 9.0
AMBEL herbicidal rating (AMBEL (Ragweed, Common) [4]; rate 0.1250 kg/ha): 9.0
GALAP rating (GALAP (Galium); 0.0156 kg/ha): 0.0
GALAP rating (GALAP (Galium); 0.0313 kg/ha): 0.0
GALAP rating (GALAP (Galium); 0.0625 kg/ha): 0.0
GALAP rating (GALAP (Galium); 0.1250 kg/ha): 4.5
GALAP rating (GALAP (Galium); 0.2500 kg/ha): 8.5
GALAP rating (GALAP (Galium); 0.5000 kg/ha): 9.0
ZEAMX herbicidal rating (ZEAMX (Corn, Field); rate 0.0158 kg/ha): 7.5
ZEAMX herbicidal rating (ZEAMX (Corn, Field); rate 0.0313 kg/ha): 7.5
ZEAMX herbicidal rating (ZEAMX (Corn, Field); rate 0.0625 kg/ha): 8.5
ZEAMX herbicidal rating (ZEAMX (Corn, Field); rate 0.1250 kg/ha): 9.0
CHEAL rating ([5]; 0.0156 kg/ha): 8.0
CHEAL rating ([5]; 0.0313 kg/ha): 9.0
CHEAL rating ([5]; 0.0625 kg/ha): 9.0
CHEAL rating ([5]; 0.1250 kg/ha): 9.0
CHEAL rating ([5]; 0.2500 kg/ha): 9.0
CHEAL rating ([5]; 0.5000 kg/ha): 9.0
GLXMAW herbicidal rating ([6]; rate 0.0158 kg/ha): 7.5
GLXMAW herbicidal rating ([6]; rate 0.0313 kg/ha): 9.0
GLXMAW herbicidal rating ([6]; rate 0.0625 kg/ha): 9.0
GLXMAW herbicidal rating ([6]; rate 0.1250 kg/ha): 9.0
ORYSAT herbicidal rating (ORYSAT (Rice, Tebonnet); rate 0.0158 kg/ha): 1.0
ORYSAT herbicidal rating (ORYSAT (Rice, Tebonnet); rate 0.0313 kg/ha): 4.0
ORYSAT herbicidal rating (ORYSAT (Rice, Tebonnet); rate 0.0625 kg/ha): 6.5
ORYSAT herbicidal rating (ORYSAT (Rice, Tebonnet); rate 0.1250 kg/ha): 8.0
AMBEL rating (AMBEL (Ragweed, Common) [7]; 0.0156 kg/ha): 0.0
AMBEL rating (AMBEL (Ragweed, Common) [7]; 0.0313 kg/ha): 0.5
AMBEL rating (AMBEL (Ragweed, Common) [7]; 0.0625 kg/ha): 2.0
AMBEL rating (AMBEL (Ragweed, Common) [7]; 0.1250 kg/ha): 6.5
AMBEL rating (AMBEL (Ragweed, Common) [7]; 0.2500 kg/ha): 6.5
AMBEL rating (AMBEL (Ragweed, Common) [7]; 0.5000 kg/ha): 9.0
CASOB rating (CASOB (Sicklepod); 0.0156 kg/ha): 0.0
CASOB rating (CASOB (Sicklepod); 0.0313 kg/ha): 0.0
CASOB rating (CASOB (Sicklepod); 0.0625 kg/ha): 0.0
CASOB rating (CASOB (Sicklepod); 0.1250 kg/ha): 3.0
CASOB rating (CASOB (Sicklepod); 0.2500 kg/ha): 6.0
CASOB rating (CASOB (Sicklepod); 0.5000 kg/ha): 9.0
